Results taken from US20220040263A1, “COMPANION DIAGNOSTIC FOR COMBINATION LENALIDOMIDE AND ERYTHROPOIETIN TREATMENT” (H. Lee Moffitt Cancer Center and Research Institute, Inc., priority 2016, published 2022).
Read-outs that look alike come from different tables or passages of the source.

Columns and labels:
[1] = tested on: MDS patients without 5q deletions; details: cited from earlier work
[2] = tested on: Csk; test: Csk and phospho-Lyn507 in UT7 cells by Western immunoblot; format: cell-based; details: lenalidomide alone or combined with EPO
Protocol: Serum starved UT7 cells were treated with either vehicle alone (control), CC5013 (2 hours), EPO (30 minutes), or CC5013 followed by addition of EPO at the concentrations indicated. Cells were lysed and assayed for β-actin (Sigma), phospho-Lyn507, total Lyn and Csk (Cell Signaling) by Western immunoblot as described previously. Protein loading was normalized to β-actin, and immunoblot signals of phosphorylated Lyn were normalized to total Lyn and actin by band densitometry.
The Lyn/Src signal response is inhibited through both Csk phosphorylation of the C-terminal tyrosine residue enabled by SFK phosphorylation of the Csk-binding protein (Csk/Pag), and by the action of the CD45 PTP that dephosphorylatse the SFK activation loop tyrosine. There were minor changes in phosphorylation of the C-terminal tyrosine of Src and Lyn kinases despite significant increases in phosphorylation of the Src activation loop tyrosine [FIGS. 5 and 6]. A minor reduction in C-terminal tyrosyl phosphorylation relative to total Lyn was associated with a decrease in total Csk that was apparent with treatment with either lenalidomide alone or when combined with EPO [FIG. 6].

[3] = tested on: azanucleoside-naive, transfusion-dependent LR, non-del(5q) MDS patients; details: cited from earlier work
[4] = tested on: STAT5; test: STAT5 phosphorylation in UT7 cells by Western immunoblot; format: cell-based
Protocol: FIGS. 2A and 2B show potentiation of STAT 5 activation by lenalidomide. […] Whole cell lysates were assayed for actin (Sigma), STAT5 and phospho-STAT5 (Cell Signaling) by Western immunoblot as previously described. […] K562 leukemia cells served as a positive control.
To determine if lenalidomide modulates EPO-R signaling to enhance cytokine induced clonogenic response, STAT5 phosphorylation and its nuclear trans-activation was evaluated after treatment with either lenalidomide or EPO alone, or the combination [FIG. 2A].

[5] = target: T1, rhu-CDC25C (Homo sapiens, UniProt P30307); test: CDC25C phosphatase OMFP hydrolysis assay; format: biochemical
T1 construct: purchased BIOMOL
T1 sequence (P30307 1-473): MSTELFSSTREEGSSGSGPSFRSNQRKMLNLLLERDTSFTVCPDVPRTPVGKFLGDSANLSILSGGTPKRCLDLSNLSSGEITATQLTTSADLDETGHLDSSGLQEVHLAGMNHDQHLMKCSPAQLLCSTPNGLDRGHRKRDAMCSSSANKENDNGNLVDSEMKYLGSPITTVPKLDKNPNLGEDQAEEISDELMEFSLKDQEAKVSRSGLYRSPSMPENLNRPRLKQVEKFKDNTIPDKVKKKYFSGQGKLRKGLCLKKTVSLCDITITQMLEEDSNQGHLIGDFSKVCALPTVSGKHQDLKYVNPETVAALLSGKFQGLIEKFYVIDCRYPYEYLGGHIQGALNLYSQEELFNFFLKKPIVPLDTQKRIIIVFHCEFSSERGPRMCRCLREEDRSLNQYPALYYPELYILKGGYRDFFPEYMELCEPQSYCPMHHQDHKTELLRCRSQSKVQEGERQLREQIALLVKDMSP
Protocol: 200 U of rhu-CDC25C (BIOMOL) was incubated in assay buffer (100 mM Tris-HCL, pH 8.2, 40 mM NaCl, 1 mM DTT, 0.1% BSA, and 20% glycerol) for 1 hour at 37 C with the indicated inhibitors CC-5013, Thalidomide, and CDC25 Phosphatase Inhibitor, NSC, Calbiochem) at the concentrations indicated. The substrate OMFP (3-0-Methylfluorescein phosphate cyclohexylammonium salt, Sigma) was added at 500 μM and tubes were incubated for 60 minutes at 37° C. Samples were read on a spectrophotometer at 477 nm. Percent activity was calculated by subtracting background absorbance and dividing each sample by the CDC25C+control.
To determine if lenalidomide inhibits CDC25C phosphatase activity, rhu-CDC25C PTP inhibition by lenalidomide and thalidomide were compared to a CDC25C selective inhibitor using the 3-o-methylfluorescein phosphate (OMFP) hydrolysis assay [FIG. 10].

[6] = tested on: STAT5; test: EPO-induced phospho-STAT5 MFI in CD71+ primary MDS cells by flow cytometry; format: cell-based, human
Protocol: BM-MNC were serum deprived in IMDM and 0.4% BSA for 1 hour, then treated as described in FIG. 5. RHu-EPO stimulated cells were treated 5 U/ml×15 minutes at 37° C. Cells were fixed in BD Cytofix (Beckon Dickenson) ×10 minutes, washed in BD Stain Buffer then re-suspended in ice cold 90% methanol. After washing ×2, cells were stained with anti-pSTAT5-phycoerthryin (PE) conjugated antibody and CD71-allophycocyanin (APC) conjugated antibody [20 μg/10^6 cells]. Cells were washed ×2 with stain buffer before transfer to FACScan tubes and analysis on the FACScan flow cytometer. The gated CD71+ cell population accounted for 11.35% of BM-MNC. Results reflect phospho-STAT5:PE MFI in a representative patient specimen. Anti-pSTAT5, CD71-APC and CD34-APC antibodies were purchased from BD-Pharmingen.
To confirm that lenalidomide enhances STAT5 phosphorylation in erythroid precursors from primary BM specimens, BM specimens were evaluated from Low- or Intermediate-1 risk MDS by flow cytometry. As in the UT7 cell line, lenalidomide increased EPO-induced phosphorylation of STAT5 in CD71+ erythroid precursors, whereas lenalidomide alone had no effect on STAT5 phosphorylation [FIG. 3]. The STAT5 phosphorylation delta (PD), i.e., the increase in mean fluorescence intensity (MFI) for EPO-induced STAT5 phosphorylation with the addition of lenalidomide compared to EPO alone was 43.5 relative MFI units, representing a 24% increase in pSTAT5 MF.

[7] = tested on: lower risk MDS patients who have failed treatment with rhu-EPO; details: cited from earlier work

inhibition of CDC25C phosphatase activity [5]: potent and selective inhibitor
Structure (SMILES): Nc1cccc2c1CN(C1CCC(=O)NC1=O)C2=O (stereo not shown) [lenalidomide, 3-(4-amino-1-oxo-1,3-dihydro-2H-isoindol-2-yl)piperidine-2,6-dione]
patients who benefit from lenalidomide therapy [1]: Approximately 25%
total Csk [2]: decrease
RBC transfusion-independence ([3]; MDS-002 and MDS-005 trials): 26%
median duration of RBC transfusion-independence ([3]; MDS-002 trial): 10.2 months
median duration of RBC transfusion-independence ([3]; MDS-005 trial): 7.75 months
EPO-induced phosphorylation of STAT5 ([4]; Western immunoblot, lenalidomide followed by EPO): increased
STAT5 phosphorylation ([4]; lenalidomide alone): no effect
EPO-induced phosphorylation of STAT5 ([6]; CD71+ erythroid precursors, Low- or Intermediate-1 risk MDS BM): increased
STAT5 phosphorylation ([6]; CD71+ erythroid precursors, lenalidomide alone): no effect
STAT5 phosphorylation delta (PD): increase in MFI for EPO-induced STAT5 phosphorylation with lenalidomide compared to EPO alone ([6]; CD71+ primary MDS cells, representative patient specimen): 43.5 relative MFI units
increase in pSTAT5 MFI ([6]; EPO + lenalidomide compared to EPO alone, CD71+ cells): 24%
cytogenetic response ([7]; del5q patients): 74%
transfusion-independence ([7]; del5q patients): 67%
erythroid response ([7]; patients with chromosome 5q31 interstitial deletion (del5q)): 76%
MER rate ([7]; patients with normal or alternate karyotypes): 25-30%
